Laboratory results: the NIST ThermoML archive (doi:10.1021/je0505164)
Numbers after ± are expanded uncertainties.

Conditions: Liquid; for mass density: 298.15 K, 101.33 kPa; for Normal boiling temperature: Ebulliometric method (Recirculating still)

Row | SMILES | mass density | Normal boiling temperature
1 | CCCO [propan-1-ol] | 799.6 ± 0.3 kg/m3 | 97.06 ± 0.2 °C
2 | CC(C)O [propan-2-ol] | 780.8 ± 0.3 kg/m3 | 82.24 ± 0.2 °C
3 | CCO [ethanol] | 785.1 ± 0.3 kg/m3 | 78.31 ± 0.2 °C
